The source of these data is patent US8937068B2, “Pyridopyrazine derivatives and their use” (Zentaris GmbH, priority 2005, dated 2015).

As for `C/C=C/NC(=S)Nc1ccc2nc(-c3ccc(O)cc3)c(-c3ccc(O)cc3)nc2n1` [Compound 33, 1-[2,3-bis-(4-hydroxy-phenyl)-pyrido[2,3-b]pyrazin-6-yl]-3-((E)-propenyl)-thiourea], the melting point is 240 °C (dec.).

Take `C=CCNC(=S)Nc1ccc2nc(-c3ccc(O)cc3)c(-c3ccc(O)cc3)nc2n1` [Compound 32, 1-allyl-3-[2,3-bis-(4-hydroxy-phenyl)-pyrido[2,3-b]pyrazin-6-yl]-thiourea]: the melting point was 270 °C (dec.).

Turning to `C=C(C)CNC(=S)Nc1ccc2ncc(-c3ccc(OC)cc3)nc2n1` [Compound 3, 1-[3-(4-methoxy-phenyl)-pyrido[2,3-b]pyrazin-6-yl]-3-(2-methyl-allyl)-thiourea], the melting point is 251 to 252 °C (dec.).

For the molecule `COc1ccc(-c2cnc3ccc(NC(=S)Nc4ccc([N+](=O)[O-])cc4)nc3n2)cc1` [Compound 9, 1-[3-(4-methoxy-phenyl)-pyrido[2,3-b]pyrazin-6-yl]-3-(4-nitro-phenyl)-thiourea], the melting point is 250 to 251 °C (dec.).

On to `S=C(Nc1ccc2ncc(-c3ccccc3)nc2n1)NC1CC1` [Compound 11, 1-cyclopropyl-3-(3-phenyl-pyrido[2,3-b]pyrazin-6-yl)-thiourea], for which the melting point was 233 to 234 °C.

Turning to `O=C(NCCc1ccccc1)Nc1ccc2ncc(-c3ccccc3)nc2n1` [Compound 35, 1-Phenethyl-3-(3-phenyl-pyrido[2,3-b]pyrazin-6-yl)-urea], the melting point was 250 °C (dec.).

In turn, `Cc1ccc(NC(=O)Nc2ccc3ncc(-c4ccccc4)nc3n2)cc1` [Compound 15, 1-(3-phenyl-pyrido[2,3-b]pyrazin-6-yl)-3-p-tolyl-urea] had a melting point of 298 to 299 °C.

`CCNC(=O)Nc1ccc2nc(-c3ccccn3)c(-c3ccccn3)nc2n1` [Compound 36, 1-(2,3-Di-pyridin-2-yl-pyrido[2,3-b]pyrazin-6-yl)-3-ethyl-urea] returned a melting point of 236 to 237 °C.

`C=CCNC(=S)Nc1ccc2ncc(-c3cccc(O)c3)nc2n1` [Compound 27, 1-allyl-3-[3-(3-hydroxy-phenyl)-pyrido[2,3-b]pyrazin-6-yl]-thiourea]: the melting point is 205 °C (dec.).

In the case of `C=CCNC(=S)Nc1ccc2ncc(-c3ccc(OC)cc3)nc2n1` [Compound 6, 1-allyl-3-[3-(4-methoxy-phenyl)-pyrido[2,3-b]pyrazin-6-yl]-thiourea], the melting point was 240 to 241 °C (dec.).

`O=C(NCCN1CCOCC1)Nc1ccc2ncc(-c3ccccc3)nc2n1` [Compound 17, 1-(2-Morpholin-4-yl-ethyl)-3-(3-phenyl-pyrido[2,3-b]pyrazin-6-yl)-urea] registered a melting point of 226 °C.

On to `C=CCNC(=S)Nc1cnc2nc(-c3ccc([N+](=O)[O-])cc3)cnc2c1` [Compound 137, 1-Allyl-3-[3-(4-nitro-phenyl)-pyrido[2,3-b]pyrazin-7-yl]-thiourea], for which the melting point was 250 °C (dec.).

The molecule `C=CCNC(=S)Nc1ccc2ncc(-c3ccc(C(=O)OCC)cc3)nc2n1` [Compound 26, 4-[6-(3-allyl-thioureido)-pyrido[2,3-b]pyrazin-3-yl]-benzoic acid ethyl ester] showed a melting point of 223 to 224 °C.

In the case of `S=C(NCc1ccco1)Nc1ccc2ncc(-c3ccccc3)nc2n1` [Compound 20, 1-furan-2-ylmethyl-3-(3-phenyl-pyrido[2,3-b]pyrazin-6-yl)-thiourea], the melting point is 250 °C (dec.).

Regarding `CNC(=S)Nc1ccc2ncc(-c3ccccc3)nc2n1` [Compound 12, 1-methyl-3-(3-phenyl-pyrido[2,3-b]pyrazin-6-yl)-thiourea], the melting point lay in the range of 253 to 254 °C.

Regarding `C=C(C)CNC(=S)Nc1ccc2ncc(-c3ccccc3)nc2n1` [Compound 4, 1-(2-methyl-allyl)-3-(3-phenyl-pyrido[2,3-b]pyrazin-6-yl)-thiourea], the melting point is 225 to 226 °C (dec.).

For `C=CCNC(=S)Nc1ccc2ncc(-c3ccc4c(c3)OCO4)nc2n1` [Compound 28, 1-allyl-3-(3-benzo[1,3]dioxol-5-yl-pyrido[2,3-b]pyrazin-6-yl)-thiourea], the melting point is 218 to 220 °C (dec.).

As to `CC(C)NC(=S)Nc1ccc2ncc(-c3ccccc3)nc2n1` [Compound 19, 1-isopropyl-3-(3-phenyl-pyrido[2,3-b]pyrazin-6-yl)-thiourea], the melting point was in the range of 229 to 230 °C.

As for `O=[N+]([O-])c1ccc(NC(=S)Nc2ccc3ncc(-c4ccc5ccccc5c4)nc3n2)cc1` [Compound 8, 1-(3-naphth-2-yl-pyrido[2,3-b]pyrazin-6-yl)-3-(4-nitro-phenyl)-thiourea], the melting point is 260 to 261 °C (dec.).

`CCNC(=O)Nc1ccc2nc(C)c(C)nc2n1` [Compound 37, 1-(2,3-Dimethyl-pyrido[2,3-b]pyrazin-6-yl)-3-ethyl-urea] came in with a melting point of 246 to 248 °C.

`S=C(NCc1ccccc1)Nc1ccc2ncc(-c3ccccc3)nc2n1` [Compound 13, 1-benzyl-3-(3-phenyl-pyrido[2,3-b]pyrazin-6-yl)-thiourea] yielded a melting point of 232 to 233 °C.

Consider `C=CCNC(=S)Nc1ccc2nc(-c3ccc(O)cc3)cnc2n1` [Compound 34, 1-allyl-3-[2-(4-hydroxy-phenyl)-pyrido[2,3-b]pyrazin-6-yl]-thiourea], for which the melting point was 260 °C (dec.).

`Fc1ccc(NC(=S)Nc2ccc3ncc(-c4ccccc4)nc3n2)cc1` [Compound 14, 1-(4-fluoro-phenyl)-3-(3-phenyl-pyrido[2,3-b]pyrazin-6-yl)-thiourea] displayed a melting point of 225 to 226 °C.

In the case of `C=CCNC(=S)Nc1ccc2ncc(-c3ccc(O)cc3)nc2n1.Cl`, the melting point is 160 to 161 °C (dec.).

With `O=C(Nc1ccc2ncc(-c3ccccc3)nc2n1)NC1CC1` [Compound 21, 1-cyclopropyl-3-(3-phenyl-pyrido[2,3-b]pyrazin-6-yl)-urea], the melting point lay within 158 to 160 °C.

As for `C=CCNC(=S)Nc1ccc2ncc(-c3ccc4ccccc4c3)nc2n1` [Compound 5, 1-allyl-3-(3-naphth-2-yl-pyrido[2,3-b]pyrazin-6-yl)-thiourea], the melting point was 242 to 243 °C (dec.).

As a reminder, the melting point is the temperature, or range, at which the solid turns liquid.
